The conditions of data set [1]: healthy volunteers, single ascending doses up to 800 mg once daily; cited from earlier work.
The test system of data set [2] is SK-HEP-1 hepatic cancer cells. As to the kind of experiment: MTT cell viability assay, SK-HEP-1 hepatic cancer cells. It counts as cell-based. The following applies: 72 hours, 0.01-20 μM, calculated with Compusyn software. As for the experimental part: FIG. 1. Floxphosteridine and floxuridine anticancer activity in vitro against SK-HEP-1 hepatic cancer cells. SK-HEP-1 hepatic cancer cells were treated with various concentrations (0.01 μM-20 μM) of floxphosteridine and floxuridine for 72 hours, and cell viability was evaluated with MTT cell viability assay.
(§1) We treated three cancer cell lines with various concentrations of Floxphosteridine (compound Ic) and floxuridine for 72 hours. The structure of floxuridine is shown below:
(§2) The SK-HEP-1 and HEPG2 cell lines used in these experiments represent in vitro models for hepatic cancer. The AGS cancer cell line is an in vitro model for gastric cancer.
In FIG. 1, SK-HEP-1 hepatic cancer cells were treated with various concentrations (0.01-20 μM) of floxphosteridine and floxuridine for 72 hours, and cell viability was evaluated with the MTT assay.

Data set [3] deals with HEPG2 hepatic cancer cells. Put plainly: MTT cell viability assay, HEPG2 hepatic cancer cells. It counts as cell-based. The following applies: 72 hours, 1.0-20 μM, calculated with Compusyn software. The method, then: FIG. 2. Floxphosteridine and floxuridine anticancer activity in vitro against HEPG2 hepatic cancer cells. HEPG2 hepatic cancer cells were treated with various concentrations (1.0 μM-20 μM) of floxphosteridine and floxuridine for 72 hours, and cell viability was evaluated with MTT cell viability assay.
as §1, §2
In FIG. 2, the two compounds were tested for anticancer activity against HEPG2 hepatic cancer cells. The cells were treated with various concentrations (1.0-20 μM) of floxphosteridine and floxuridine for 72 hours, and cell viability was evaluated with the MTT assay.

The subject of data set [4] is AGS gastric cancer cells. As to the kind of experiment: MTT cell viability assay, AGS gastric cancer cells. It counts as cell-based. The following applies: 72 hours, 1.0-20 μM (0.01-20 μM), calculated with Compusyn software. As for the experimental part: FIG. 3. Floxphosteridine and floxuridine anticancer activity in vitro against AGS gastric cancer cells. AGS gastric cancer cells were treated with various concentrations (0.01 μM-20 μM) of floxphosteridine and floxuridine for 72 hours, and cell viability was evaluated with MTT cell viability assay.
as §1, §2
In FIG. 3, the two compounds were tested for anticancer activity against AGS gastric cancer cells. The cells were treated with various concentrations (1.0-20 μM) of floxphosteridine and floxuridine for 72 hours, and cell viability was evaluated with the MTT assay.

Regarding `CC(C)OC(=O)[C@H](C)N[P@](=O)(OC[C@H]1O[C@@H](n2ccc(=O)[nH]c2=O)[C@](C)(F)[C@@H]1O)Oc1ccccc1` (racemic) [PSI-7851], in data set [1], the safety and tolerability entry was “generally safe and well tolerated, with no dose-limiting toxicities”; the “systemic exposure profile (pharmacokinetic results)” value is “rapid uptake of the drug by the liver and low plasma exposure to the prodrug PSI-7851”.

Take `CC(C)OC(=O)[C@H](C)N[P@](=O)(OC[C@H]1O[C@@H](n2cc(F)c(=O)[nH]c2=O)C[C@@H]1O)Oc1ccccc1` [floxphosteridine]: the IC50 is 31.7 µM in data set [2] (Homo sapiens, SK-HEP1, SK-HEP-1 cells); 13.3 µM in data set [3] (Homo sapiens); 7.26 µM in data set [4] (Homo sapiens).

floxuridine: the IC50 in data set [2] (SK-HEP-1 cells) is 0.8 µM; in data set [3], 10.4 µM; in data set [4], 5.71 µM.

A word on the IC50: it is the point on the concentration scale where inhibition reaches its midpoint.

The values above are taken from US20160137685A1, “NUCLEOSIDE PHOSPHORAMIDATES AND PHOSPHORAMIDITES” (priority 2013, published 2016).
